Counter-ions that a name gives are not always drawn.
Legend:
JH2 domain of human Tyk2 = biological target: T1, JH2 domain of human Tyk2 (Homo sapiens, UniProt P29597); experiment: JH2 biochemical assay (TR-FRET probe displacement); type: binding
T1 construct: 10×His-tagged TYK2 JH2 domain (amino acid 575-876)
Method in brief: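 10×His-tagged human TYK2 JH2 (aa 575-876, 2 nM) incubated 60 min with 2 nM fluorescent probe, 0.1 nM Tb anti-His antibody and compound (10-point 3-fold series from […] top). TR-FRET 520/495 nm ratio, falling with probe displacement, normalized and fitted to a 4-parameter logistic for IC50.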

[1] = test system: Tyk2 kinase activity on STAT4; experiment: pSTAT4 cell assay (MSD, NK92 cells); type: cell-based; conditions: compounds 1 hr
Method in brief: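 NK92, serum-starved; cpd 1 hr, 10-pt 4-fold from 10 μM; IL2 30 ng/mL 15 min; lyse; MSD with anti-STAT4 Abs; IC50 by 4-PL fit.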

[2] = TR-FRET probe displacement, JH2 domain of human Tyk2

T1 sequence (P29597 575-876): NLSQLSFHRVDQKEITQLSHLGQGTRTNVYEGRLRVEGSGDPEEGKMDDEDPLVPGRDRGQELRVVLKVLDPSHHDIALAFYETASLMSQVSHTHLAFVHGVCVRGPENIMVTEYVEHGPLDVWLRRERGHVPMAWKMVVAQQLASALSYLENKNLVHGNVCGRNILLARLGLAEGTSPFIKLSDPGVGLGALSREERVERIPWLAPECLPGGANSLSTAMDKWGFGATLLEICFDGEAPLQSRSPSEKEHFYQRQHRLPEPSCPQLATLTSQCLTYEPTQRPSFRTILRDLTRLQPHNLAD

For `CC(=O)Nc1cc2c(cn1)C1(CC1)CN2c1cc(C)cc(OCC23CC(C)(CO2)C3)n1` [Example 349, N-(1′-(4-methyl-6-((4-methyl-2-oxabicyclo[2.1.1]hexan-1-yl)methoxy)pyridin-2-yl)-1′,2′-dihydrospiro[cyclopropane-1,3′-pyrrolo[3,2-c]pyridin]-6′-yl)acetamide], the IC50 (JH2 domain of human Tyk2; JH2 biochemical assay) was 100 to 1000 nM and the IC50 ([1]; stimulated 15 minutes) was ≥ 1000 nM.
With `COC1CC(COc2cc(C)cc(N3CC4(CC4)c4cnc(NC(C)=O)cc43)n2)C1` (stereo not shown) [Example 350, N-(1′-(6-((3-methoxycyclobutyl)methoxy)-4-methylpyridin-2-yl)-1′,2′-dihydrospiro[cyclopropane-1,3′-pyrrolo[3,2-c]pyridin]-6′-yl)acetamide] the IC50 (JH2 domain of human Tyk2; JH2 biochemical assay) was 100 to 1000 nM and the IC50 ([1]; stimulated 15 minutes) was ≥ 1000 nM.
In the case of `COC1(COc2cc(C)cc(N3CC4(CC4)c4cnc(NC(C)=O)cc43)n2)CCC1` [Example 351, N-(1′-(6-((1-methoxycyclobutyl)methoxy)-4-methylpyridin-2-yl)-1′,2′-dihydrospiro[cyclopropane-1,3′-pyrrolo[3,2-c]pyridin]-6′-yl)acetamide], the IC50 (JH2 domain of human Tyk2; JH2 biochemical assay) is reported as 100 to 1000 nM and the IC50 ([1]; stimulated 15 minutes) is reported as ≥ 1000 nM.
In the case of `CC(=O)Nc1cc2c(cn1)C1(CC1)CN2c1cc(C)cc(OCC2CC2)n1` [Example 352, N-(1′-(6-(cyclopropylmethoxy)-4-methylpyridin-2-yl)-1′,2′-dihydrospiro[cyclopropane-1,3′-pyrrolo[3,2-c]pyridin]-6′-yl)acetamide trifluoroacetate], the IC50 (JH2 domain of human Tyk2; JH2 biochemical assay) is reported as 100 to 1000 nM and the IC50 ([1]; stimulated 15 minutes) is reported as ≥ 1000 nM.
In the case of `CC(=O)Nc1cc2c(cn1)C1(CC1)CN2c1cc(C)cc(OC2CCC(F)C2)n1` (stereo not shown) [Example 353, N-(1′-(6-((3-fluorocyclopentyl)oxy)-4-methylpyridin-2-yl)-1′,2′-dihydrospiro[cyclopropane-1,3′-pyrrolo[3,2-c]pyridin]-6′-yl)acetamide trifluoroacetate], the IC50 (JH2 domain of human Tyk2; JH2 biochemical assay) is reported as 100 to 1000 nM and the IC50 ([1]; stimulated 15 minutes) is reported as ≥ 1000 nM.
For `CC(=O)Nc1cc2c(cn1)C1(CC1)CN2c1cc(C)cc(OC2CCCC2)n1` [Example 354, N-(1′-(6-(cyclopentyloxy)-4-methylpyridin-2-yl)-1′,2′-dihydrospiro[cyclopropane-1,3′-pyrrolo[3,2-c]pyridin]-6′-yl)acetamide trifluoroacetate], the IC50 (JH2 domain of human Tyk2; JH2 biochemical assay) was 100 to 1000 nM and the IC50 ([1]; stimulated 15 minutes) was ≥ 1000 nM.
For `CC(=O)Nc1cc2c(cn1)C1(CC1)CN2c1cc(C)cc(OCCF)n1` [Example 355, N-(1′-(6-(2-fluoroethoxy)-4-methylpyridin-2-yl)-1′,2′-dihydrospiro[cyclopropane-1,3′-pyrrolo[3,2-c]pyridin]-6′-yl)acetamide trifluoroacetate], the IC50 (JH2 domain of human Tyk2; JH2 biochemical assay) was ≤ 10 nM and the IC50 ([1]; stimulated 15 minutes) was 100 to 1000 nM.
`CC(=O)Nc1cc2c(cn1)C1(CC1)CN2c1cc(C)cc(OCC(C)(F)F)n1` [Example 356, N-(1′-(6-(2,2-difluoropropoxy)-4-methylpyridin-2-yl)-1′,2′-dihydrospiro[cyclopropane-1,3′-pyrrolo[3,2-c]pyridin]-6′-yl)acetamide trifluoroacetate] was tested, and the IC50 (JH2 domain of human Tyk2; JH2 biochemical assay) was 10 to 100 nM and the IC50 ([1]; stimulated 15 minutes) was ≥ 1000 nM.
`COCCOc1cc(C)cc(N2CC3(CC3)c3cnc(NC(C)=O)cc32)n1` [Example 357, N-(1′-(6-(2-methoxyethoxy)-4-methylpyridin-2-yl)-1′,2′-dihydrospiro[cyclopropane-1,3′-pyrrolo[3,2-c]pyridin]-6′-yl)acetamide trifluoroacetate] was tested, and the IC50 (JH2 domain of human Tyk2; JH2 biochemical assay) was 10 to 100 nM and the IC50 ([1]; stimulated 15 minutes) was ≥ 1000 nM.
`CC(=O)Nc1cc2c(cn1)C1(CC1)CN2c1cc(C)cc(OCC2CCO2)n1` (stereo not shown) [Example 358, N-(1′-(4-methyl-6-(oxetan-2-ylmethoxy)pyridin-2-yl)-1′,2′-dihydrospiro[cyclopropane-1,3′-pyrrolo[3,2-c]pyridin]-6′-yl)acetamide trifluoroacetate] was tested, and the IC50 (JH2 domain of human Tyk2; JH2 biochemical assay) was ≥ 1000 nM and the IC50 ([1]; stimulated 15 minutes) was ≥ 1000 nM.
For `CC(=O)Nc1cc2c(cn1)C1(CC1)CN2c1cc(OC2CCN(C)C2)nc(C(C)(F)F)n1` (stereo not shown) [Example 359, N-(1′-(2-(1,1-difluoroethyl)-6-((1-methylpyrrolidin-3-yl)oxy)pyrimidin-4-yl)-1′,2′-dihydrospiro[cyclopropane-1,3′-pyrrolo[3,2-c]pyridin]-6′-yl)acetamide trifluoroacetate], the IC50 (JH2 domain of human Tyk2; JH2 biochemical assay) was 10 to 100 nM and the IC50 ([1]; stimulated 15 minutes) was ≥ 1000 nM.
For `CC(=O)Nc1cc2c(cn1)C1(CC1)CN2c1cc(C)nc(OC2CC(F)(F)C2)n1` [Example 363, N-(1′-(2-(3,3-difluorocyclobutoxy)-6-methylpyrimidin-4-yl)-1′,2′-dihydrospiro[cyclopropane-1,3′-pyrrolo[3,2-c]pyridin]-6′-yl)acetamide], the IC50 (JH2 domain of human Tyk2; JH2 biochemical assay) was 100 to 1000 nM and the IC50 ([1]; stimulated 15 minutes) was ≥ 1000 nM.
For `CC(=O)Nc1cc2c(cn1)C1(CC1)CN2c1cc(C)nc(OC2CC3(COC3)C2)n1` [Example 364, N-(1′-(2-((2-oxaspiro[3.3]heptan-6-yl)oxy)-6-methylpyrimidin-4-yl)-1′,2′-dihydrospiro[cyclopropane-1,3′-pyrrolo[3,2-c]pyridin]-6′-yl)acetamide], the IC50 (JH2 domain of human Tyk2; JH2 biochemical assay) was 100 to 1000 nM and the IC50 ([1]; stimulated 15 minutes) was ≥ 1000 nM.
In the case of `CC(=O)Nc1cc2c(cn1)C1(CC1)CN2c1cc(C)nc(OC2CC(C)C2)n1` (stereo not shown) [Example 367, N-(1′-(6-methyl-2-(3-methylcyclobutoxy)pyrimidin-4-yl)-1′,2′-dihydrospiro[cyclopropane-1,3′-pyrrolo[3,2-c]pyridin]-6′-yl)acetamide], the IC50 (JH2 domain of human Tyk2; JH2 biochemical assay) is reported as 100 to 1000 nM and the IC50 ([1]; stimulated 15 minutes) is reported as ≥ 1000 nM.
With `CC(=O)Nc1cc2c(cn1)C1(CC1)CN2c1cc(C)nc(OC2CC(F)(C#N)C2)n1` (stereo not shown) [Example 368, N-(1′-(2-(3-cyano-3-fluorocyclobutoxy)-6-methylpyrimidin-4-yl)-1′,2′-dihydrospiro[cyclopropane-1,3′-pyrrolo[3,2-c]pyridin]-6′-yl)acetamide] the IC50 (JH2 domain of human Tyk2; JH2 biochemical assay) was 100 to 1000 nM and the IC50 ([1]; stimulated 15 minutes) was ≥ 1000 nM.
For `CC(=O)Nc1cc2c(cn1)C1(CC1)CN2c1cc(C)nc(OCC2CC2)n1` [Example 369, N-(1′-(2-(cyclopropylmethoxy)-6-methylpyrimidin-4-yl)-1′,2′-dihydrospiro[cyclopropane-1,3′-pyrrolo[3,2-c]pyridin]-6′-yl)acetamide], the IC50 (JH2 domain of human Tyk2; JH2 biochemical assay) was 100 to 1000 nM and the IC50 ([1]; stimulated 15 minutes) was ≥ 1000 nM.
With `CC(=O)Nc1cc2c(cn1)C1(CC1)CN2c1cc(C)nc(OC2CC(F)C2)n1` (stereo not shown) [Example 370, N-(1′-(2-(3-fluorocyclobutoxy)-6-methylpyrimidin-4-yl)-1′,2′-dihydrospiro[cyclopropane-1,3′-pyrrolo[3,2-c]pyridin]-6′-yl)acetamide] the IC50 (JH2 domain of human Tyk2; JH2 biochemical assay) was 100 to 1000 nM and the IC50 ([1]; stimulated 15 minutes) was ≥ 1000 nM.
In the case of `CC(=O)Nc1cc2c(cn1)C1(CC1)CN2c1cc(C)nc(OCC23CC(C)(CO2)C3)n1` [Example 371, N-(1′-(6-methyl-2-((4-methyl-2-oxabicyclo[2.1.1]hexan-1-yl)methoxy)pyrimidin-4-yl)-1′,2′-dihydrospiro[cyclopropane-1,3′-pyrrolo[3,2-c]pyridin]-6′-yl)acetamide], the IC50 (JH2 domain of human Tyk2; JH2 biochemical assay) is reported as ≥ 1000 nM and the IC50 ([1]; stimulated 15 minutes) is reported as ≥ 1000 nM.
For `COC1CC(COc2nc(C)cc(N3CC4(CC4)c4cnc(NC(C)=O)cc43)n2)C1` (stereo not shown) [Example 372, N-(1′-(2-((3-methoxycyclobutyl)methoxy)-6-methylpyrimidin-4-yl)-1′,2′-dihydrospiro[cyclopropane-1,3′-pyrrolo[3,2-c]pyridin]-6′-yl)acetamide], the IC50 (JH2 domain of human Tyk2; [2]) was 100 to 1000 nM and the IC50 ([1]; then stimulated 15 minutes) was ≥ 1000 nM.
For `COC(C)(C)COc1nc(C)cc(N2CC3(CC3)c3cnc(NC(C)=O)cc32)n1` [Example 373, N-(1′-(2-(2-methoxy-2-methylpropoxy)-6-methylpyrimidin-4-yl)-1′,2′-dihydrospiro[cyclopropane-1,3′-pyrrolo[3,2-c]pyridin]-6′-yl)acetamide], the IC50 (JH2 domain of human Tyk2; [2]) was 100 to 1000 nM and the IC50 ([1]; then stimulated 15 minutes) was ≥ 1000 nM.
With `CC(=O)Nc1cc2c(cn1)C1(CC1)CN2c1cc(C)nc(OC2CCOC2)n1` (stereo not shown) [Example 374, N-(1′-(6-methyl-2-((tetrahydrofuran-3-yl)oxy)pyrimidin-4-yl)-1′,2′-dihydrospiro[cyclopropane-1,3′-pyrrolo[3,2-c]pyridin]-6′-yl)acetamide trifluoroacetate] the IC50 (JH2 domain of human Tyk2; [2]) was 10 to 100 nM and the IC50 ([1]; then stimulated 15 minutes) was ≥ 1000 nM.
In the case of `CC(=O)Nc1cc2c(cn1)C1(CC1)CN2c1cc(C)nc(OC2CC(C#N)C2)n1` (stereo not shown) [Example 375, N-(1′-(2-(3-cyanocyclobutoxy)-6-methylpyrimidin-4-yl)-1′,2′-dihydrospiro[cyclopropane-1,3′-pyrrolo[3,2-c]pyridin]-6′-yl)acetamide], the IC50 (JH2 domain of human Tyk2; [2]) is reported as 100 to 1000 nM and the IC50 ([1]; then stimulated 15 minutes) is reported as ≥ 1000 nM.
In the case of `COCC1CC(Oc2nc(C)cc(N3CC4(CC4)c4cnc(NC(C)=O)cc43)n2)C1` (stereo not shown) [Example 376, N-(1′-(2-(3-(methoxymethyl)cyclobutoxy)-6-methylpyrimidin-4-yl)-1′,2′-dihydrospiro[cyclopropane-1,3′-pyrrolo[3,2-c]pyridin]-6′-yl)acetamide], the IC50 (JH2 domain of human Tyk2; [2]) is reported as 100 to 1000 nM and the IC50 ([1]; then stimulated 15 minutes) is reported as ≥ 1000 nM.
For `CC(=O)Nc1cc2c(cn1)C1(CC1)CN2c1cc(C)nc(OC2CC(F)C2)n1` (stereo not shown) [Example 377, N-(1′-(2-(3-fluorocyclobutoxy)-6-methylpyrimidin-4-yl)-1′,2′-dihydrospiro[cyclopropane-1,3′-pyrrolo[3,2-c]pyridin]-6′-yl)acetamide], the IC50 (JH2 domain of human Tyk2; [2]) was 10 to 100 nM and the IC50 ([1]; then stimulated 15 minutes) was ≥ 1000 nM.
`COC1(COc2nc(C)cc(N3CC4(CC4)c4cnc(NC(C)=O)cc43)n2)CCC1` [Example 378, N-(1′-(2-((1-methoxycyclobutyl)methoxy)-6-methylpyrimidin-4-yl)-1′,2′-dihydrospiro[cyclopropane-1,3′-pyrrolo[3,2-c]pyridin]-6′-yl)acetamide] was tested, and the IC50 (JH2 domain of human Tyk2; [2]) was 100 to 1000 nM and the IC50 ([1]; then stimulated 15 minutes) was ≥ 1000 nM.
With `CC(=O)Nc1cc2c(cn1)C1(CC1)CN2c1cc(C)nc(OC2CCCC2)n1` [Example 379, N-(1′-(2-(cyclopentyloxy)-6-methylpyrimidin-4-yl)-1′,2′-dihydrospiro[cyclopropane-1,3′-pyrrolo[3,2-c]pyridin]-6′-yl)acetamide trifluoroacetate] the IC50 (JH2 domain of human Tyk2; [2]) was 10 to 100 nM and the IC50 ([1]; then stimulated 15 minutes) was ≥ 1000 nM.
